Reference: patent US8871789B2, “Method of preventing or treating viral infection” (The United States of America, as represented by the …, priority 2010, dated 2014)

Key:
Assay type in all cases: cell-based
HSV-1 [1] = assay: Plaque assay of Vero cells infected with HSV-1; design: # Plaques: dose or concentration left out as unconfirmed; conditions: for # Plaques: 12 hours infection, then ACV or ML324 for 48 hours
Protocol: ML324 was ˜75-fold more efficient than DMOG. Additionally, ML324 (i) reduced viral yields in a dose-dependent manner (˜5 logs at 50 mM, FIG. 14); (ii) blocked viral IE gene transcription and reduced viral yields when cells were infected at high multiplicity of infection (MOI; FIGS. 15 and 16); and (iii) suppressed IE gene transcription, even when added at times after infection (>50% reduction at 2 hours after infection; FIG. 17). As further evidence for the efficacy of ML324, cells were infected with HSV to allow for a productive cycle of infection, followed by treatment with DMSO, ACV, or ML324.

HSV-1 [2] = assay: MRC-5 cells infected with HSV-1 at high MOI (IE mRNA, viral yields)
Protocol: FIG. 15 is a bar graph showing MRC-5 cells treated with DMSO or 50 mM ML324 that were infected with HSV-1 at the indicated multiplicity of infection (MOI). Viral IE and cellular mRNA levels were quantitated at 2 hours after infection. *P<0.0001, two-way ANOVA with Tukey's post hoc test. Data are means±SEM.
FIG. 16 is a bar graph showing MRC-5 cells treated with DMSO or 50 mM ML324 that were infected with HSV-1 at the indicated MOI. Viral yields were determined at 24 hours after infection. *P<0.0001, two-way ANOVA with Tukey's post hoc test. Data are means±SEM.

HSV-1 [3] = assay: HSV-1 lytic viral yields from HFF cells; design: reduction of viral yields: dose or concentration left out as unconfirmed; conditions: HFF cells, HSV-1 0.1 PFU per cell, 24 hours; FIG. 14
Protocol: FIG. 14 is a bar graph showing viral yields from HFF cells treated with DMSO or ML324 for 3 hours and infected with HSV-1 (0.1 PFUper cell) for 24 hours in the presence of the drugs. *P<0.004, one-way ANOVA with Dunnett's post hoc test. Data are means±SEM.
HSV-1 lytic viral yields decrease in the presence of DMOG (FIG. 10). HFF cells were pretreated with DMSO control or JMJD2 inhibitor DMOG for 5 hrs and infected with 0.1 pfu/cell of HSV-1 for 24 hrs in the presence of DMSO or DMOG. The yield of infectious virus derived from each treatment were determined by tittering on Vero cells according to standard procedures.

[4] = treatment after productive cycle of infection

With `CN(C)CCCNC(=O)c1ccc(-c2cc(O)c3ncccc3c2)cc1` [Compound 4, N-(3-(dimethylamino)propyl)-4-(8-hydroxyquinolin-6-yl)benzamide] the “# Plaques” value (HSV-1 [1]; MOI .001) was 0, the “# Plaques” value (HSV-1 [1]; MOI .01) was 2 and the “formation of HSV plaques” value (HSV-1 [1]; [4]) was “markedly suppressed”. For the same compound, the “spread of infection to adjacent cells (UL29 immunofluorescence)” value (HSV-1 [1]; [4]) was “markedly suppressed”, the “viral IE gene transcription at high multiplicity of infection” value (HSV-1 [2]; 50 mM ML324, 2 hours after infection, FIG. 15) was “blocked” and the “viral yields at high multiplicity of infection” value (HSV-1 [2]; 50 mM ML324, 24 hours after infection, FIG. 16) was “reduced”. For the same compound, the “reduction of viral yields” value (HSV-1 [3]) was about 5 logs.
